target: IGF-1R (Homo sapiens (Human), UniProt P08069); assay: Example B-1: IGF-1R Assay (PC3 cells, IGF1 stimulation, AlphaLISA); format: cell-based; details: 200 ng/mL IGF1 stimulation, read-out: Biological Activity against IGF-1R IC50
Procedure, shortened: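 PC3 cells were serum-starved 2 h, treated with serially diluted compounds for 2 h, then stimulated with IGF1 (200 ng/mL final) for 30 min. Lysates were read by AlphaLISA; % inhibition was calculated relative to vehicle and EC80 controls, with IC50 values binned into ranges.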

IGF-1R, sequence (P08069 31-1367): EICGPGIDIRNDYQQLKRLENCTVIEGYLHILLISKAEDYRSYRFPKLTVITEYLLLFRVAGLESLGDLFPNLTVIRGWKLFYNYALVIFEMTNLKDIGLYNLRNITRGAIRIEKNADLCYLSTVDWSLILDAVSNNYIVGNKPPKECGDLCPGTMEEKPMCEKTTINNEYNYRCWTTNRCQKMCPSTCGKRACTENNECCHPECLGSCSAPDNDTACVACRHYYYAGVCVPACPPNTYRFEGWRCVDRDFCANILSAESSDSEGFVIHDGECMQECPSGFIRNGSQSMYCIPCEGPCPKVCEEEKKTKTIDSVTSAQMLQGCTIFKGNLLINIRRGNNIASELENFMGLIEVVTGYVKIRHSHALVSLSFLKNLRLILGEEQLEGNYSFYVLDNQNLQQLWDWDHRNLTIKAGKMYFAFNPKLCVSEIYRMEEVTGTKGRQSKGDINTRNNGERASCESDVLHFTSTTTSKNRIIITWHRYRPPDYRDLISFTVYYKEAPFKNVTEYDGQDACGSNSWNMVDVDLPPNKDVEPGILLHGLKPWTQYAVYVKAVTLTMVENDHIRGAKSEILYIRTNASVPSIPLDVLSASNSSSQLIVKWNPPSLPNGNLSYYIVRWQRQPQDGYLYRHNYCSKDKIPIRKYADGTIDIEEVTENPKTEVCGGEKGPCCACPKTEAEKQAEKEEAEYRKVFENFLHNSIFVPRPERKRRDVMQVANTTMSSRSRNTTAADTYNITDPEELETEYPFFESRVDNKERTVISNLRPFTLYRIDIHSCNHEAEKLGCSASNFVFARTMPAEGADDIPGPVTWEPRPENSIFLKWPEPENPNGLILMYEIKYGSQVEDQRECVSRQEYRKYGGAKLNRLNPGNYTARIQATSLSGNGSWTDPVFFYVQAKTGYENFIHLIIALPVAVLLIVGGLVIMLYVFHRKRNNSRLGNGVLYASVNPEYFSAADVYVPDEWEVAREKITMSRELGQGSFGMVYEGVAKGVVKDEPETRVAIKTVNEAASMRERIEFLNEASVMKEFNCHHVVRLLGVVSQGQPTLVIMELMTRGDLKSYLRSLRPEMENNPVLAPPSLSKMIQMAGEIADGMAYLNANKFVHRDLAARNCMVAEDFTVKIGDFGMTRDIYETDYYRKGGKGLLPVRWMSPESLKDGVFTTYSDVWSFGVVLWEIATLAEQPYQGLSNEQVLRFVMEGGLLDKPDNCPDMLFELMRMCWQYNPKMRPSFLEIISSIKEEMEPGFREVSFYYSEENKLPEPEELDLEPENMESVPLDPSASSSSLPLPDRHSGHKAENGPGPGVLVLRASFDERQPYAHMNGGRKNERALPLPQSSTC

`COc1cc(Nc2nccc(Nc3cnc4ccc(Cl)cc4c3)n2)cnc1O[C@H]1C[C@@H](N(C)C)C1` [Compound 131, N4-(6-chloroquinolin-3-yl)-N2-(6-((1s,3s)-3-(dimethylamino)cyclobutoxy)-5-methoxypyridin-3-yl)pyrimidine-2,4-diamine] and `COc1cc(Nc2nccc(Nc3cnc4ccc(C(F)F)cc4c3)n2)cnc1O[C@H]1C[C@@H](N(C)C)C1` [Compound 163, 4-[6-(difluoromethyl)-3-quinolylamino]-2-{5-methoxy-6-[(1s,3s)-3-(dimethylamino)cyclobutoxy]-3-pyridylamino}pyrimidine] cannot be ordered by IC50: ≤ 500 nM for the first, ≤ 500 nM for the second.

`COc1cc(Nc2nccc(Nc3cnc4ccccc4c3)n2)cnc1O[C@H]1C[C@@H](N(C)C)C1` [Compound 132, N2-(6-((1s,3s)-3-(dimethylamino)cyclobutoxy)-5-methoxypyridin-3-yl)-N4-(quinolin-3-yl)pyrimidine-2,4-diamine] and `COc1cc(Nc2nccc(Nc3cc4ccccc4nc3C(N)=O)n2)cnc1O[C@H]1C[C@@H](N(C)C)C1` [Compound 172, 3-((2-((6-((1s,3s)-3-(dimethylamino)cyclobutoxy)-5-methoxypyridin-3-yl)amino)pyrimidin-4-yl)amino)quinoline-2-carboxamide] cannot be ordered by IC50: ≤ 500 nM for the first, ≤ 500 nM for the second.

`CN(C)CC(=O)N1CCc2cc(Nc3nccc(Nc4cc5cccc(F)c5[nH]c4=O)n3)ccc21` [Compound 151, 3-((2-((1-(dimethylglycyl)indolin-5-yl)amino)pyrimidin-4-yl)amino)-8-fluoroquinolin-2(1H)-one] and `COc1cc(Nc2nccc(Nc3cc4cccc(F)c4[nH]c3=O)n2)ccc1N1CCN(C)C(C)(C)C1` [Compound 175, 8-fluoro-3-((2-((3-methoxy-4-(3,3,4-trimethylpiperazin-1-yl)phenyl)amino)pyrimidin-4-yl)amino)quinolin-2(1H)-one] cannot be ordered by IC50: ≤ 500 nM for the first, ≤ 500 nM for the second.

`COc1cc(Nc2nccc(Nc3cnc4cc(F)c(F)cc4c3)n2)c(C)cc1O[C@H]1C[C@@H](N(C)C)C1` [Compound 154, N4-(6,7-difluoroquinolin-3-yl)-N2-(4-((1s,3s)-3-(dimethylamino)cyclobutoxy)-5-methoxy-2-methylphenyl)pyrimidine-2,4-diamine] and `COc1cc(Nc2ncc(F)c(Nc3cnc4cc(F)c(F)cc4c3)n2)ccc1O[C@H]1C[C@@H](N(C)C)C1` [Compound 173, N4-(6,7-difluoroquinolin-3-yl)-N2-(4-((1s,3s)-3-(dimethylamino)cyclobutoxy)-3-methoxyphenyl)-5-fluoropyrimidine-2,4-diamine] cannot be ordered by IC50: ≤ 500 nM for the first, ≤ 500 nM for the second.

`COc1cc(Nc2nccc(Nc3cnc4cc(F)c(F)cc4c3)n2)ccc1N1CCC(C)(O)CC1` [Compound 155, 1-(4-((4-((6,7-difluoroquinolin-3-yl)amino)pyrimidin-2-yl)amino)-2-methoxyphenyl)-4-methylpiperidin-4-ol] and `COc1cc(Nc2nccc(Nc3cnc4cc(F)c(F)cc4c3)n2)cnc1N1CCC(C)(O)CC1` [Compound 156, 1-(5-((4-((6,7-difluoroquinolin-3-yl)amino)pyrimidin-2-yl)amino)-3-methoxypyridin-2-yl)-4-methylpiperidin-4-ol] cannot be ordered by IC50: ≤ 500 nM for the first, ≤ 500 nM for the second.

`COc1cc(Nc2nccc(Nc3cnc4cc(F)c(F)cc4c3)n2)cnc1N1CCOC(C)(C)C1` [Compound 157, N4-(6,7-difluoroquinolin-3-yl)-N2-(6-(2,2-dimethylmorpholino)-5-methoxypyridin-3-yl)pyrimidine-2,4-diamine] and `COc1cc(Nc2nccc(Nc3cnc4cc(F)c(F)cc4c3)n2)cnc1N1CCS(=N)(=O)CC1` [Compound 158, 4-(5-((4-((6,7-difluoroquinolin-3-yl)amino)pyrimidin-2-yl)amino)-3-methoxypyridin-2-yl)-1-imino-116-thiomorpholine 1-oxide] fall in the same range of IC50: 500 to 2000 nM for the first, 500 to 2000 nM for the second.

`COc1cc(Nc2nccc(Nc3cc4cccc(F)c4[nH]c3=O)n2)cnc1N1CCOC(C)(C)C1` [Compound 160, 3-((2-((6-(2,2-dimethylmorpholino)-5-methoxypyridin-3-yl)amino)pyrimidin-4-yl)amino)-8-fluoroquinolin-2(1H)-one] and `COc1cc(Nc2nccc(Nc3cc4cccc(F)c4[nH]c3=O)n2)cnc1N1CCN(C)CC1` [Compound 197, 8-fluoro-3-{2-[5-methoxy-6-(4-methyl-1-piperazinyl)-3-pyridylamino]-4-pyrimidinylamino}-1,2-dihydro-2-quinolinone] cannot be ordered by IC50: ≤ 500 nM for the first, ≤ 500 nM for the second.

`COc1cc(Nc2nccc(Nc3cnc4cc(F)c(F)cc4c3)n2)cnc1N1CCS(=O)(=O)CC1` [Compound 161, 4-(5-((4-((6,7-difluoroquinolin-3-yl)amino)pyrimidin-2-yl)amino)-3-methoxypyridin-2-yl)thiomorpholine 1,1-dioxide] and `COc1cc(Nc2nccc(Nc3cnc4cc(F)c(F)cc4c3)n2)cnc1N1CCNC(C(F)(F)F)C1` (stereo not drawn) [Compound 176, N4-(6,7-difluoroquinolin-3-yl)-N2-(5-methoxy-6-(3-(trifluoromethyl)piperazin-1-yl)pyridin-3-yl)pyrimidine-2,4-diamine] cannot be ordered by IC50: 500 to 2000 nM for the first, ≤ 500 nM for the second.

`COc1cc(Nc2nccc(Nc3cc4cccc(F)c4[nH]c3=O)n2)cnc1O[C@@H]1CCN(C)C1` [Compound 165, 3-(2-{6-[(R)-1-methyl-3-pyrrolidinyloxy]-5-methoxy-3-pyridylamino}-4-pyrimidinylamino)-8-fluoro-1,2-dihydro-2-quinolinone] and `COc1cc(Nc2nccc(Nc3cc4cccc(F)c4[nH]c3=O)n2)cnc1O[C@H]1CCN(C)C1` [Compound 166, 3-(2-{6-[(S)-1-methyl-3-pyrrolidinyloxy]-5-methoxy-3-pyridylamino}-4-pyrimidinylamino)-8-fluoro-1,2-dihydro-2-quinolinone] fall in the same range of IC50: 500 to 2000 nM for the first, 500 to 2000 nM for the second.

`COc1cc(Nc2nccc(Nc3cc4cccc(F)c4[nH]c3=O)n2)cnc1OC1CC2(C1)CN(C)C2` [Compound 167, 8-fluoro-3-(2-{5-methoxy-6-(2-methyl-2-aza-6-spiro[3.3]heptyloxy)-3-pyridylamino}-4-pyrimidinylamino)-1,2-dihydro-2-quinolinone] and `COc1cc(Nc2nccc(Nc3cc4cccc(F)c4[nH]c3=O)n2)cnc1N1CCN(C)C(C(F)(F)F)C1` (stereo not drawn) [Compound 174, 8-fluoro-3-((2-((5-methoxy-6-(4-methyl-3-(trifluoromethyl)piperazin-1-yl)pyridin-3-yl)amino)pyrimidin-4-yl)amino)quinolin-2(1H)-one] cannot be ordered by IC50: ≤ 500 nM for the first, 500 to 2000 nM for the second.

`COc1cc(Nc2nccc(Nc3ccc4ccc(Cl)nc4n3)n2)ccc1O[C@H]1C[C@@H](N(C)C)C1` [Compound 168, N4-(7-chloro-1,8-naphthyridin-2-yl)-N2-(4-((1s,3s)-3-(dimethylamino)cyclobutoxy)-3-methoxyphenyl)pyrimidine-2,4-diamine] and `COc1cc(Nc2nccc(Nc3cnc4ccc(Br)cc4c3)n2)ccc1O[C@H]1C[C@H](N(C)C)C1` [Compound 199, 4-(6-bromo-3-quinolylamino)-2-{3-methoxy-4-[(1r,3r)-3-(dimethylamino)cyclobutoxy]phenylamino}pyrimidine] cannot be ordered by IC50: ≤ 500 nM for the first, ≤ 500 nM for the second.

`COc1cc(Nc2nccc(Nc3cnc4c(c3)OCC(CN(C)C)O4)n2)ccc1O[C@H]1C[C@@H](N(C)C)C1` (stereo partly drawn) [Compound 179, 4-{3-[(dimethylamino)methyl]-2,3-dihydro-1,4-dioxa-5-aza-7-naphthylamino}-2-{3-methoxy-4-[(1s,3s)-3-(dimethylamino)cyclobutoxy]phenylamino}pyrimidine] and `COc1cc(Nc2nccc(Nc3cnc4c(c3)O[C@H]3CCC[C@@H]3O4)n2)ccc1O[C@H]1C[C@@H](N(C)C)C1` [Compound 192, 4-{(3S,7S)-2,8-dioxa-10-azatricyclo[7.4.0.03,7]trideca-1(13),9,11-trien-12-ylamino}-2-{3-methoxy-4-[(1s,3R)-3-(dimethylamino)cyclobutoxy]phenylamino}pyrimidine] cannot be ordered by IC50: ≤ 500 nM for the first, ≤ 500 nM for the second.

`COc1cc(Nc2nccc(Nc3cnc(O[C@H]4CCCC[C@H]4O)c(F)c3)n2)ccc1O[C@H]1C[C@@H](N(C)C)C1` [Compound 180, (1R,2S)-2-[3-fluoro-5-(2-{3-methoxy-4-[(1s,3R)-3-(dimethylamino)cyclobutoxy]phenylamino}-4-pyrimidinylamino)-2-pyridyloxy]cyclohexanol] and `COc1cc(Nc2nccc(Nc3cnc4c(c3)O[C@@H]3CCCC[C@@H]3O4)n2)ccc1O[C@H]1C[C@@H](N(C)C)C1` [Compound 190, 4-[(8aS,10aR)-5,6,7,8,8a, 10a-hexahydro-9,10-dioxa-1-aza-3-anthrylamino]-2-{3-methoxy-4-[(1s,3S)-3-(dimethylamino)cyclobutoxy]phenylamino}pyrimidine] cannot be ordered by IC50: ≤ 500 nM for the first, ≤ 500 nM for the second.

`COc1cc(Nc2nccc(Nc3cnc4c(c3)O[C@H]3CCCC[C@@H]3O4)n2)ccc1O[C@H]1C[C@@H](N(C)C)C1` [Compound 191, 4-[(8aS,10aS)-5,6,7,8,8a,10a-hexahydro-9,10-dioxa-1-aza-3-anthrylamino]-2-{3-methoxy-4-[(1s,3R)-3-(dimethylamino)cyclobutoxy]phenylamino}pyrimidine] and `COc1cc(Nc2nccc(Nc3cc(Cl)cnc3C(N)=O)n2)ccc1O[C@H]1C[C@@H](N(C)C)C1` [Compound 198, 5-chloro-3-(2-{3-methoxy-4-[(1s,3s)-3-(dimethylamino)cyclobutoxy]phenylamino}-4-pyrimidinylamino)-2-pyridinecarboxamide] cannot be ordered by IC50: ≤ 500 nM for the first, ≤ 500 nM for the second.

`COc1cc(Nc2ncc(F)c(Nc3cc4ccccc4nc3C(N)=O)n2)ccc1O[C@H]1C[C@@H](N(C)C)C1` [Compound 193, 3-(5-fluoro-2-{3-methoxy-4-[(1s,3s)-3-(dimethylamino)cyclobutoxy]phenylamino}-4-pyrimidinylamino)-2-quinolinecarboxamide] and `COc1cc(Nc2nccc(Nc3cnc4c(c3)CCC4)n2)ccc1OCCCN1CCCCC1` [Compound 194, 4-(4-aza-6-indanylamino)-2-[3-methoxy-4-(3-piperidinopropoxy)phenylamino] pyrimidine] cannot be ordered by IC50: ≤ 500 nM for the first, ≤ 500 nM for the second.
